# Measurements reported in US20240408071A1, “NOVEL COMBINATION OF SEROTONIN RECEPTOR (5-HTR2B) ANTAGONIST AND AN IMMUNOMODULATOR AND CHEMOTHERAPEUTIC DRUGS FOR INHIBITION OF CANCER” (NATIONAL CENTRE FOR CELL SCIENCE, priority 2021, published 2024).
# Key:
# MC38 tumor = experiment: CD31+ micro-blood vessel count in MC38 tumor sections (IHC, angiogenesis); format: in vivo, mice; details: MC38 tumor harvested after 20 days of tumor inoculation
# Experimental: FIG. 6 depicts that 5-HTR2B signalling in colon cancer affects cell proliferation and viability: Colon cancer MC38 cells were treated with serotonin (100 μM), 5-HTR2B agonist (BW-723C86; 50 μM), or 5-HTR2B antagonist (SB-215505; 50 μM) for 48 hours, and cell cycle analysis was performed by propidium iodide staining using flow cytometry. MC38 cells were also treated with a graded dose of 5-HTR2B agonist (BW-723C86) or serotonin. MTT assay was performed to measure cell viability. (A) After treatment with 5-HTR2B agonist BW-723C86, serotonin, or 5-HTR2B antagonist SB-215505, the relative cell cycle analysis is shown. (B) Relative cell viability data of MC38 cells following treatment of graded doses of 5-HTR2B agonist BW-723C86 or serotonin are shown. The data shown are representative of one of the three independent experiments. (C) MC38 tumor sections from the control tumor and 5-HTR2B antagonist treated tumor were stained for CD31 and the number of CD31^+ micro-blood vessels/mm^2 of tissue sections was counted and plotted to observe angiogenesis. […]
# For fluorescence-based immunohistochemical staining, tissues were embedded in OCT tissue freezing media (Fisher Scientific) and stored at −80° C. […] The images were captured using Olympus FV3000 confocal microscope (Waltham, Massachusetts), and the images were analysed using Cellsens software (Olympus; Waltham, Massachusetts). […]
# 5-HTR2B receptor subtype = 5-HTR2B receptor subtype (Homo sapiens, UniProt P41595); details: more specific to 5-HTR2B; cited from earlier work
# MC38 cells = experiment: MTT cell viability assay; format: cell-based, mouse; details: graded dose; reduced serum media; 48 hours of stimulation
# Experimental: FIG. 6 depicts that 5-HTR2B signalling in colon cancer affects cell proliferation and viability: Colon cancer MC38 cells were treated with serotonin (100 μM), 5-HTR2B agonist (BW-723C86; 50 μM), or 5-HTR2B antagonist (SB-215505; 50 μM) for 48 hours, and cell cycle analysis was performed by propidium iodide staining using flow cytometry. MC38 cells were also treated with a graded dose of 5-HTR2B agonist (BW-723C86) or serotonin. MTT assay was performed to measure cell viability. (A) After treatment with 5-HTR2B agonist BW-723C86, serotonin, or 5-HTR2B antagonist SB-215505, the relative cell cycle analysis is shown. (B) Relative cell viability data of MC38 cells following treatment of graded doses of 5-HTR2B agonist BW-723C86 or serotonin are shown. The data shown are representative of one of the three independent experiments. (C) MC38 tumor sections from the control tumor and 5-HTR2B antagonist treated tumor were stained for CD31 and the number of CD31^+ micro-blood vessels/mm^2 of tissue sections was counted and plotted to observe angiogenesis. Error bar represents ±standard error of the mean (SEM).
# MC38 cells were cultured at a density of 0.5×10^4 cells/well in 96 well plates (flat bottom) and were allowed to adhere for 24 hours. […] Then, MTT crystals were dissolved with DMSO, and the reading was taken at 590 nm in an ELISA reader (Thermofisher). […]
# Sequence of 5-HTR2B receptor subtype (P41595 whole entry): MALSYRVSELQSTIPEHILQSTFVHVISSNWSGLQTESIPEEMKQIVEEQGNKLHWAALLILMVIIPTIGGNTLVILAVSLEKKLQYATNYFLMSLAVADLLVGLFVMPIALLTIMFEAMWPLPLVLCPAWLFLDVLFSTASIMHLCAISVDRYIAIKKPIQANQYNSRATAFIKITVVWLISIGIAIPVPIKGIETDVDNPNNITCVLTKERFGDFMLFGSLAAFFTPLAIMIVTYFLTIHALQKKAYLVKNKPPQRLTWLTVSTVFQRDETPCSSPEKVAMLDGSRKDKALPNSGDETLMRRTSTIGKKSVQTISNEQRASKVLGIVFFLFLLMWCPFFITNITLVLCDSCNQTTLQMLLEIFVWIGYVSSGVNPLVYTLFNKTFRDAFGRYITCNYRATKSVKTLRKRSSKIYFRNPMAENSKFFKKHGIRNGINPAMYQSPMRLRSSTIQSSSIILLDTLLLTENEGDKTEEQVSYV
SMILES,number of CD31+ micro-blood vessels/mm^2 in the tumor area (MC38 tumor),specificity to the 5-HTR2B receptor subtype (5-HTR2B receptor subtype) [times],viability of MC38 cells (MC38 cells)
CC(C)c1cc(-c2ccc(F)c3ccccc23)nc(N)n1 [RS-127445],reduced the number of micro-blood vessels/mm^2,~1000,
CC(N)Cc1c[nH]c2ccc(OCc3cccs3)cc12 (stereo not drawn) [BW-723C86],,,enhanced the viability of MC38 cells
